From PMC11274943, “Discovery of Benzisothiazolone Derivatives as Bifunctional Inhibitors of HIV-1 Reverse Transcriptase DNA Polymerase and Ribonuclease H Activities” (Biomolecules, 2024)

Test system: G190A HIV-1 RT DNA-dependent DNA polymerase activity
Experiment: biochemical
Assay type: biochemical
Details: G190A RT; fold resistance IC50 mutant/IC50 WT
Experimental: WT (wild-type) RT, and RTs harboring the NNRTI-resistant mutations K101E, K103N, Y181C, Y188C, G190A and P236L, were overexpressed and purified to homogeneity as described previously. The RT concentration was determined spectrophotometrically at 280 nm using an absorbance coefficient of 260,450 M^−1·cm^−1. The 7-hydroxy tropolone derivative 19,616 (2,7-dihydroxy 2,4,6-cyclo-heptatrien-1-one) was purchased from Molecular Diversity Preservation International (Basel, Switzerland). […] The benzisothiazolone derivatives were procured from MolPort (New York, NY, USA) or Enamine (Kyiv, Ukraine). The DNA and RNA oligonucleotides were synthesized and purified by Integrated DNA Technologies (Coralville, IA, USA). All other reagents were of the highest quality available and were used without further purification.
DDDP assays were also performed using a QuantiFluor ONE based spectrophotometric assay to detect double-stranded DNA synthesized by recombinant HIV-1 RT [14]. The reaction contained 40 nM of a template/primer comprising a 200 nt DNA template (5′-[…] […]-[…]-[…] […] […]-3′) annealed to an 18-nucleotide DNA primer (5′-[…]-3′), and a mix of 50 mM Tris-HCl pH 7.8, 50 mM NaCl, 10 mM MgCl2 and 50 µM dNTP. The reactions were stopped after 45 min by adding the detection reagent containing 1 × Quant-Fluor One (Promega) and 12.5 mM ethylenediaminetet-raacetic acid; the samples were transferred to a 96-well black plate, and fluorescence was measured at excitation/emission (490/535 nm).

SMILES	Inhibition of RT DNA polymerase activity Fold-R
CCOC(=O)Cc1csc(-n2sc3ccccc3c2=O)n1 [Compound 2, ethyl 2-(2-(3-oxobenzo[d]isothiazol-2(3H)-yl)thiazol-4-yl)acetate]	0.7
CCN(CC)S(=O)(=O)c1cccc(-n2sc3ccccc3c2=O)c1 [Compound 4, N,N-diethyl-3-(3-oxobenzo[d]isothiazol-2(3H)-yl)benzenesulfonamide]	1.5
